Measured values published in patent publication US11873295B2, “Allosteric chromenone inhibitors of phosphoinositide 3-kinase (PI3K) for the treatment of disease” (Petra Pharma Corporation, priority 2021, dated 2024).

Assays:
[1] = target: T1, human full length PIK3KA Wild-type (p110α/p85α complex) (Homo sapiens, UniProt P42336); assay: PI3K-alpha kinase (PIK3CA) biochemical activity, wild-type, ADP-Glo; conditions: PI3K-α (PIK3CA) biochemical, Soy PI lipid substrate
T1 construct: Recombinant, catalytically active human full length PIK3KA Wild-type and H1047R mutant were purchased as 1:1 complex; 6xHis (N); purchased EMD Millipore Sigma 14-602M
Summary of the method: (§1)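 Full-length His-p110α/p85α complex, wild-type or H1047R, 1–5 nM, preincubated with compound 1 h at 27 °C in HEPES pH 7.4, 25 mM MgCl2, 0.01% Triton X-100, 1% DMSO. Reaction with 20 μM ATP and 50 μM PIP2diC8 or soy PI at 27 °C to ~10% ATP conversion; ADP-Glo luminescence. IC50 from 10-point four-parameter logistic fit.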

[2] = target: T2, human full length PIK3KA H1047R mutant (p110α/p85α complex) (Homo sapiens, UniProt P42336, H1047R); assay: PI3K-alpha kinase (PIK3CA) biochemical activity, H1047R mutant, ADP-Glo; conditions: PI3K-α (PIK3CA) biochemical, H1047R mutant, Soy PI lipid substrate
T2 construct: Recombinant, catalytically active human full length PIK3KA Wild-type and H1047R mutant were purchased as 1:1 complex; 6xHis (N); purchased EMD Millipore Sigma 14-792M
Summary of the method: as §1

[3] = system: PI3K-α (PIK3CA) in MDA-MB-453 cells; assay: PI3K-alpha kinase (PIK3CA) activity in vitro cell based assay, MDA-MB-453 cells, AlphaLisa SureFire; conditions: Homo sapiens, MDA-MB-453, 3 h, 0% FBS, 3 hours treatment, relative IC50
Summary of the method: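 MDA-MB-453 cells in serum-free MEM with 1 μg/mL insulin treated 3 h with 10-point 1:3 compound dilutions, 0.3% DMSO. Lysates read by AlphaLisa SureFire; percent inhibition relative to DMSO (max) and 1 μM GDC-0032 (min), duplicate means fitted to 4-parameter logistic for relative IC50.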

T2 sequence (P42336 whole entry H1047R): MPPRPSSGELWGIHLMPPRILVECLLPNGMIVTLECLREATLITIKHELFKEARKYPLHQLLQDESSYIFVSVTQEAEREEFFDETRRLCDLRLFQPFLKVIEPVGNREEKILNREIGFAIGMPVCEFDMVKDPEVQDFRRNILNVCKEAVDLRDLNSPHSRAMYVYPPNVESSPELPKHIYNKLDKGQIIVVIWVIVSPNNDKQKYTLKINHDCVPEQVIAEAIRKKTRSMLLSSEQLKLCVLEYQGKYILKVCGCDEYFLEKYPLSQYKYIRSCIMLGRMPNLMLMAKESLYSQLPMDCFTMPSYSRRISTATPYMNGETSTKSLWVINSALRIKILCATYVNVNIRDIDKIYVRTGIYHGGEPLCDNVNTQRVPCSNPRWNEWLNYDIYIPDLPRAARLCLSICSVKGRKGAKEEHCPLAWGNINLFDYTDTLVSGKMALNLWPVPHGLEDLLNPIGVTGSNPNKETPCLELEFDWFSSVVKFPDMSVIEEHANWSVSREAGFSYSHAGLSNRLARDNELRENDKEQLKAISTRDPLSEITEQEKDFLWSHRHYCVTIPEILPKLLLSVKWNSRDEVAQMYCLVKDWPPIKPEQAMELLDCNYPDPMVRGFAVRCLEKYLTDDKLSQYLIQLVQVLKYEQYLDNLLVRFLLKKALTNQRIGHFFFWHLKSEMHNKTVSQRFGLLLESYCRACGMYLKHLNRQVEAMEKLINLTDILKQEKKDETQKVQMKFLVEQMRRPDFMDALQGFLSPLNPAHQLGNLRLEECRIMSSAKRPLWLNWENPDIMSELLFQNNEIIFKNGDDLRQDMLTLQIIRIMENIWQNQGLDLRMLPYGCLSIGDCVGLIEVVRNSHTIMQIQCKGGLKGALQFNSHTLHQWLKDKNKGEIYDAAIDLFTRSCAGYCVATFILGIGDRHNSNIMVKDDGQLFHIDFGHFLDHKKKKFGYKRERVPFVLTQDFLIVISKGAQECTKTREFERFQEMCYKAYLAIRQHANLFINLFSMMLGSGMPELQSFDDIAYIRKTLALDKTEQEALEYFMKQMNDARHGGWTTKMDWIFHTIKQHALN
T2 sequence (P27986 whole entry partner): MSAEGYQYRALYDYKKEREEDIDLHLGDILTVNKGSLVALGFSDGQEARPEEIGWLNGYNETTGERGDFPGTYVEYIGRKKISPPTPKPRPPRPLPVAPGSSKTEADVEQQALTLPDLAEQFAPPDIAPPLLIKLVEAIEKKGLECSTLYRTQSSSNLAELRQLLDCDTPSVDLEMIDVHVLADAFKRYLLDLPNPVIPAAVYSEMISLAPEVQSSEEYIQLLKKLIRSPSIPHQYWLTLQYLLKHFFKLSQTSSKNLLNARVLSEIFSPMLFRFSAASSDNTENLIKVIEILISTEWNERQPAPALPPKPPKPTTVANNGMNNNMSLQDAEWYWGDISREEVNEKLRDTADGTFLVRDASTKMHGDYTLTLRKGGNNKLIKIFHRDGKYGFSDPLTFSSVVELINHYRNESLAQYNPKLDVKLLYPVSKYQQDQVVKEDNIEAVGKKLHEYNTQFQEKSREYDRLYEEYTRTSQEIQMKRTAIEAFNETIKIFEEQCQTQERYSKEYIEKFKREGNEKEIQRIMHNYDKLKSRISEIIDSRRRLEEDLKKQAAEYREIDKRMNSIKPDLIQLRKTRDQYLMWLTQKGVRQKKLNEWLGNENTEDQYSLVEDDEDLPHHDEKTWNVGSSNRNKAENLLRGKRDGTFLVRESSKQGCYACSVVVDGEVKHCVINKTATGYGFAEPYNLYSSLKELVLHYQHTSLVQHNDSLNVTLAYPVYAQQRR

SMILES | IC50 [1] [µM] | IC50 [2] [µM] | IC50 [3] [µM]
Cc1cc([C@@H](C)Nc2ccc(Cl)nc2C(=O)O)c2oc(-c3ccccc3)c(C)c(=O)c2c1 [Example 1, 6-Chloro-3-[[(1R)-1-(3,6-dimethyl-4-oxo-2-phenyl-chromen-8-yl)ethyl]amino]pyridine-2-carboxylic acid] | 0.5 to 1 | < 0.5 | < 0.05
Cc1cc(C(C)Nc2ccccc2C(=O)O)c2oc(-c3ccccc3)c(F)c(=O)c2c1 (single isomer, unassigned; isomer 1) [Example 132, 2-[1-(3-Fluoro-6-methyl-4-oxo-2-phenyl-chromen-8-yl)ethylamino]benzoic acid, Isomer 1] | 1 to 5 | < 0.5 | < 0.05
Cc1c(-c2ccccc2F)oc2c([C@@H](C)Nc3ccc(Cl)nc3C(=O)O)cc(C(F)(F)F)cc2c1=O [Example 98, 6-Chloro-3-[[(1R)-1-[2-(2-fluorophenyl)-3-methyl-4-oxo-6-(trifluoromethyl)-chromen-8-yl]ethyl]amino]pyridine-2-carboxylic acid] | 1 to 5 | < 0.5 | < 0.05
Cc1cc([C@@H](C)Nc2ccccc2C(=O)O)c2oc(-c3ccc(F)cc3F)c(C)c(=O)c2c1 [Example 75, 2-[[(1R)-1-[2-(2,4-Difluorophenyl)-3,6-dimethyl-4-oxo-chromen-8-yl]ethyl]amino]benzoic acid] | 1 to 5 | < 0.5 | < 0.05
Cc1cc(C(C)Nc2ccc(C)nc2C(=O)O)c2oc(-c3ccccc3)c(C(F)(F)F)c(=O)c2c1 (stereo not drawn) [Example 101, 6-Methyl-3-[1-[6-methyl-4-oxo-2-phenyl-3-(trifluoromethyl)-chromen-8-yl]ethylamino]pyridine-2-carboxylic acid 2,2,2-trifluoroacetic acid] | < 0.5 | < 0.5 | < 0.05
Cc1cc([C@@H](C)Nc2ccccc2C(=O)O)c2oc(-c3ccccc3)c(-c3cccnc3)c(=O)c2c1 [Example 156, 2-[[(1R)-1-[6-Methyl-4-oxo-2-phenyl-3-(3-pyridyl)chromen-8-yl]ethyl]amino]benzoic acid 2,2,2-trifluoroacetic acid] | 1 to 5 | 0.5 to 1 | 0.1 to 0.5
Cc1cc([C@@H](C)Nc2ccc(C)nc2C(=O)O)c2oc(-c3cccc(C#N)c3)c(C)c(=O)c2c1 [Example 127, 3-[[(1R)-1-[2-(3-Cyanophenyl)-3,6-dimethyl-4-oxo-chromen-8-yl]ethyl]amino]-6-methyl-pyridine-2-carboxylic acid] | 1 to 5 | < 0.5 | 0.05 to 0.1
Cc1cc([C@@H](C)Nc2ccc(Br)nc2C(=O)O)c2oc(-c3ccccc3)c(C)c(=O)c2c1 [Example 35, 6-Bromo-3-[[(1R)-1-(3,6-dimethyl-4-oxo-2-phenyl-chromen-8-yl)ethyl]amino]-pyridine-2-carboxylic acid] | 1 to 5 | < 0.5 | < 0.05
Cc1cc([C@@H](C)Nc2ccc(Cl)cc2C(=O)O)c2oc(-c3cccc(C#N)c3)c(C)c(=O)c2c1 [Example 144, 5-Chloro-2-[[(1R)-1-[2-(3-cyanophenyl)-3,6-dimethyl-4-oxo-chromen-8-yl]ethyl]amino]benzoic acid] | 0.5 to 1 | < 0.5 | < 0.05
Cc1cc([C@@H](C)Nc2ccccc2C(=O)O)c2oc(-c3ccc(-c4cnn(C)c4)cc3)c(C)c(=O)c2c1 [Example 164, 2-[[(1R)-1-[3,6-Dimethyl-2-[4-(1-methylpyrazol-4-yl)phenyl]-4-oxo-chromen-8-yl]ethyl]amino]benzoic acid] | < 0.5 | < 0.5 | < 0.05
Cc1cc([C@@H](C)Nc2ccccc2C(=O)O)c2oc(-c3ccc(-c4ccn[nH]4)cc3)c(C)c(=O)c2c1 [Example 168, 2-[[(1R)-1-[3,6-Dimethyl-4-oxo-2-[4-(1H-pyrazol-5-yl)phenyl]chromen-8-yl]ethyl]amino]benzoic acid] | 0.5 to 1 | < 0.5 | < 0.05
Cc1cc([C@@H](C)Nc2ccccc2C(=O)O)c2oc(-c3cccc(F)c3)c(C)c(=O)c2c1 [Example 28, 2-[[(1R)-1-[2-(3-Fluorophenyl)-3,6-dimethyl-4-oxo-chromen-8-yl]ethyl]amino]benzoic acid] | 1 to 5 | < 0.5 | < 0.05
Cc1cc([C@@H](C)Nc2cccnc2C(=O)O)c2oc(-c3cccc(F)c3)c(C)c(=O)c2c1 [Example 136, 3-[[(1R)-1-[2-(3-Fluorophenyl)-3,6-dimethyl-4-oxo-chromen-8-yl]ethyl]amino]pyridine-2-carboxylic acid] | 5 to 10 | 0.5 to 1 | 0.05 to 0.1
Cc1cc([C@@H](C)Nc2ccccc2C(=O)O)c2oc(-c3ccccc3)c(NCCC(=O)O)c(=O)c2c1 [Example 171, 2-[[(1R)-1-[3-(2-Carboxyethylamino)-6-methyl-4-oxo-2-phenyl-chromen-8-yl]ethyl]amino]benzoic acid 2,2,2-trifluoroacetic acid] | > 10 | 0.5 to 1 | > 0.5
Cc1cc([C@@H](C)Nc2ccccc2C(=O)O)c2oc(-c3cccc(-c4cn[nH]c4)c3)c(C)c(=O)c2c1 [Example 167, 2-[[(1R)-1-[3,6-Dimethyl-4-oxo-2-[3-(1H-pyrazol-4-yl)phenyl]chromen-8-yl]ethyl]amino]benzoic acid] | 0.5 to 1 | < 0.5 | < 0.05
Cc1cc([C@@H](C)Nc2ccc(Cl)c(F)c2C(=O)O)c2oc(-c3ccccc3)c(C)c(=O)c2c1 [Example 42, 3-Chloro-6-[[(1R)-1-(3,6-dimethyl-4-oxo-2-phenyl-chromen-8-yl)ethyl]amino]-2-fluoro-benzoic acid] | 0.5 to 1 | < 0.5 | < 0.05
Cc1c(-c2ccccc2)oc2c([C@@H](C)Nc3ccccc3C(=O)O)cc(C(F)(F)F)cc2c1=O [Example 102, 2-[[(1R)-1-[3-Methyl-4-oxo-2-phenyl-6-(trifluoromethyl)-chromen-8-yl]ethyl]amino]benzoic acid] | 1 to 5 | < 0.5 | < 0.05
Cc1cc([C@@H](C)Nc2ccccc2C(=O)O)c2oc(-c3cccc(-c4cc[nH]n4)c3)c(C)c(=O)c2c1 [Example 166, 2-[[(1R)-1-[3,6-Dimethyl-4-oxo-2-[3-(1H-pyrazol-3-yl)phenyl]chromen-8-yl]ethyl]amino]benzoic acid] | 1 to 5 | 0.5 to 1 | < 0.05
Cc1cc([C@@H](C)Nc2ccc(C)c(F)c2C(=O)O)c2oc(-c3ccccc3)c(C)c(=O)c2c1 [Example 43, 6-[[(1R)-1-(3,6-Dimethyl-4-oxo-2-phenyl-chromen-8-yl)ethyl]amino]-2-fluoro-3-methyl-benzoic acid] | 1 to 5 | < 0.5 | 0.05 to 0.1
Cc1c(-c2ccccc2)oc2c([C@@H](C)Nc3ccc(Cl)nc3C(=O)O)cc(C(F)(F)F)cc2c1=O [Example 91, 6-Chloro-3-[[(1R)-1-[3-methyl-4-oxo-2-phenyl-6-(trifluoromethyl)-chromen-8-yl]ethyl]amino]pyridine-2-carboxylic acid] | 1 to 5 | < 0.5 | < 0.05
Cc1cc([C@@H](C)Nc2ccccc2C(=O)O)c2oc(-c3ccc(-c4cn[nH]c4)cc3)c(C)c(=O)c2c1 [Example 162, 2-[[(1R)-1-[3,6-Dimethyl-4-oxo-2-[4-(1H-pyrazol-4-yl)phenyl]chromen-8-yl]ethyl]amino]benzoic acid] | 0.5 to 1 | < 0.5 | < 0.05
C[C@@H](Nc1ccc(Cl)nc1C(=O)O)c1cc(C(F)(F)F)cc2c(=O)cc(-c3ccc(F)c(F)c3)oc12 [Example 88, 6-Chloro-3-[[(1R)-1-[2-(3,4-difluorophenyl)-4-oxo-6-(trifluoromethyl)-chromen-8-yl]ethyl]amino]pyridine-2-carboxylic acid] | 1 to 5 | < 0.5 | < 0.05
Cc1cc([C@@H](C)Nc2ccc(C(F)(F)F)nc2C(=O)O)c2oc(-c3ccc(F)c(F)c3)c(C)c(=O)c2c1 [Example 123, 3-[[(1R)-1-[2-(3,4-Difluorophenyl)-3,6-dimethyl-4-oxo-chromen-8-yl]ethyl]amino]-6-(trifluoromethyl)pyridine-2-carboxylic acid] | 1 to 5 | < 0.5 | < 0.05
Cc1cc([C@@H](C)Nc2ccccc2C(=O)O)c2oc(-c3cccc(F)c3F)c(C)c(=O)c2c1 [Example 92, 2-[[(1R)-1-[2-(2,3-Difluorophenyl)-3,6-dimethyl-4-oxo-chromen-8-yl]ethyl]amino]benzoic acid 2,2,2-trifluoroacetic acid] | 5 to 10 | < 0.5 | < 0.05
C[C@@H](Nc1ccc(Cl)nc1C(=O)O)c1cc(C(F)(F)F)cc2c(=O)cc(-c3ccc(F)cc3F)oc12 [Example 81, 6-Chloro-3-[[(1R)-1-[2-(2,4-difluorophenyl)-4-oxo-6-(trifluoromethyl)-chromen-8-yl]ethyl]amino]pyridine-2-carboxylic acid] | 1 to 5 | < 0.5 | < 0.05
